The test system of assay [1] is HEK293. Nature of the assay: cells. To be noted: Homo sapiens, ATCC CRL1573, HEK293; ASSAY_TEST Inhibition of Cell Viability; detection method Resazurin; Fluorescence (ex560/em590); MEDIA DMEM with 10% FBS; plate type 384well; TC; CORNING #3712; time 18 hr; read-out: CC50. In kind it is functional, Homo sapiens, ATCC CRL1573. Background: Alamar Blue is a resazurin reagent that responds to reducing activity.

In assay [2] the test system is Pseudomonas aeruginosa. In words: Antibacterial activity against Pseudomonas aeruginosa PAO397 [PAO1 d(mexAB-oprM) d(mexCD-oprJ) d(mexEF-oprN) d(mexJKL) d(mexXY) d(opmH)] (CO-ADD:GN_211); MIC in CAMBH media using NBS plates, by OD(600). Format: functional. Conditions: ASSAY_TEST Inhibition of Bacterial Growth, detection method Absorption (OD600), MEDIA CAMHB, plate type 384well, CORNING #3640, time 18 hr.

The subject of assay [3] is Cryptococcus neoformans.
Description: Antifungal activity against Cryptococcus neoformans H99 ATCC 208821 (CO-ADD:FG_002); MIC in YNB media using NBS plates, by Resazurin OD(600-570)
The subject of assay [4] is Staphylococcus aureus. In words: microbe, parasite or virus in culture. Conditions: ATCC 43300, 18 h, ASSAY_TEST Inhibition of Bacterial Growth, detection method Absorption (OD600), MEDIA CAMHB, plate type 384well, NBS, CORNING #3640.
Description: Antibacterial activity against Staphylococcus aureus MRSA ATCC 43300 (CO-ADD:GP_020); MIC in CAMBH media, using NBS plates, by OD(600)
Assay [5] deals with Escherichia coli. Nature of the assay: microbe, parasite or virus in culture. Conditions: ATCC 25922, 18 h, ASSAY_TEST Inhibition of Bacterial Growth, detection method Absorption (OD600), MEDIA CAMHB, plate type 384well, NBS, CORNING #3640.
Description: Antibacterial activity against Escherichia coli ATCC 25922 (CO-ADD:GN_001); MIC in CAMBH media using NBS plates, by OD(600)
Assay [6] deals with Klebsiella pneumoniae. Nature of the assay: microbe, parasite or virus in culture. Conditions: ATCC 700603, 18 h, ASSAY_TEST Inhibition of Bacterial Growth, detection method Absorption (OD600), MEDIA CAMHB, plate type 384well, NBS, CORNING #3640.
Description: Antibacterial activity against Klebsiella pneumoniae MDR ATCC 70063 (CO-ADD:GN_003); MIC in CAMBH media using NBS plates, by OD(600)
Assay [7] deals with Pseudomonas aeruginosa. Nature of the assay: microbe, parasite or virus in culture. Conditions: ATCC 27853, 18 h, ASSAY_TEST Inhibition of Bacterial Growth, detection method Absorption (OD600), MEDIA CAMHB, plate type 384well, NBS, CORNING #3640.
Description: Antibacterial activity against Pseudomonas aeruginosa ATCC 27853 (CO-ADD:GN_042); MIC in CAMBH media using NBS plates, by OD(600)
The test system of assay [8] is Acinetobacter baumannii. Nature of the assay: microbe, parasite or virus in culture. Conditions: ATCC 19606, 18 h, ASSAY_TEST Inhibition of Bacterial Growth, detection method Absorption (OD600), MEDIA CAMHB, plate type 384well, NBS, CORNING #3640.
Description: Antibacterial activity against Acinetobacter baumannii ATCC 19606 (CO-ADD:GN_034); MIC in CAMBH media using NBS plates, by OD600
Assay [9] relates to Candida albicans. Nature of the assay: microbe, parasite or virus in culture. Conditions: ATCC 90028, ASSAY_TEST Inhibition of Fungal Growth, detection method Absorption (OD530), plate type 384well, NBS, CORNING #3640.
Description: Antifungal activity against Candida albicans ATCC 90028 (CO-ADD:FG_001); MIC in YNB media using NBS plates, by OD630

≈ marks a conversion by molar mass, not a printed value. Counter-ions that a name gives are not always drawn.

The CC50 is the concentration at which the toxic effect on the cells reaches its halfway point.

Take `CCn1cc(C(=O)O)c(=O)c2cc(F)c(N3CCNC(C)C3)c(F)c21` (stereo unspecified) [LOMEFLOXACIN HYDROCHLORIDE]: the CC50 in assay [1] is above 20 µM. Besides, the MIC in assay [2] is 0.312 µM; in assay [3] it was above 20 µM; in assay [4], 10 µM; in [5], 0.625 µM; in assay [6], 20 µM; in [7], above 20 µM. The MIC is 20 µM in assay [8] and above 20 µM in assay [9].
Take `O=c1nc(N2CCN(CC3CCCCC3)CC2)sc2c([N+](=O)[O-])cc(C(F)(F)F)cc12` [MACOZINONE]: in [1], the CC50 was above 20 µM. Besides, the MIC in assay [2], in assay [3], in assay [4], in [5], in assay [6] and in [7] was above 20 µM in each case. Besides, the MIC in [8] and in assay [9] was above 20 µM each time.
`NCc1ccc(S(N)(=O)=O)cc1` [MAFENIDE]: the CC50 in assay [1] was above 20 µM. Moreover, the MIC in assay [2], in assay [3], in [4], in [5], in assay [6] and in assay [7] was above 20 µM throughout. In addition, the MIC in assay [8] and in [9] was above 20 µM each time.
Take `CC(C)Nc1nc2cc(Cl)c(Cl)cc2n1[C@H]1O[C@@H](CO)[C@H](O)[C@@H]1O` [MARIBAVIR]: the CC50 in assay [1] was above 20 µM. Further, the MIC in assay [2], in [3], in assay [4], in [5], in [6] and in assay [7] was above 20 µM throughout. Further, the MIC in [8] and in [9] was above 20 µM in each case.
Consider `C[N+]1(C)CCCC(OC(=O)C(O)(c2ccccc2)c2ccccc2)C1` (stereo unspecified) [MEPENZOLATE BROMIDE], for which the CC50 in assay [1] is above 20 µM. The MIC in assay [2], in [3], in assay [4], in assay [5], in [6] and in assay [7] was above 20 µM throughout. In addition, the MIC in assay [8] and in assay [9] was above 20 µM each time.
As for `Cc1cc(C)n(O)c(=O)c1` [METIPIROX], the CC50 in assay [1] was above 20 µM. Besides, the MIC is above 20 µM in assay [2]; 20 µM (≈ 2.78 µg/mL) in [3]; above 20 µM in assay [4]; above 20 µM in assay [5]; above 20 µM in assay [6]; above 20 µM in assay [7]. Besides, the MIC in [8] and in assay [9] was above 20 µM throughout.
As for `CSc1ccc2c(c1)C(N1CCN(C)CC1)Cc1ccccc1S2` (stereo unspecified) [METITEPINE], the CC50 in assay [1] is above 20 µM. Besides, the MIC in assay [2], in [3], in assay [4], in [5], in assay [6] and in [7] was above 20 µM in each case. Besides, the MIC in assay [8] and in [9] was above 20 µM each time.
Regarding `Cn1cc(NC(=O)c2cc(NC(=O)c3ccc(/C=C/c4cnc5ccccc5c4)cc3)cn2C)cc1C(=O)NCCN1CCOCC1` [MGB-BP-3], in [1], the CC50 came to 1.71 µM. Also, the MIC is above 20 µM in [2]; above 20 µM in assay [3]; 1.25 µM (≈ 0.79 µg/mL) in [4]; above 20 µM in [5]; above 20 µM in [6]; above 20 µM in assay [7]. Also, the MIC in assay [8] and in assay [9] was above 20 µM each time.
With `CC#C[C@]1(O)CC[C@H]2[C@@H]3CCC4=CC(=O)CCC4=C3[C@@H](c3ccc(N(C)C)cc3)C[C@@]21C` [MIFEPRISTONE], the CC50 in assay [1] was above 20 µM. Besides, the MIC in assay [2], in assay [3], in [4], in assay [5], in [6] and in assay [7] was above 20 µM each time. Also, the MIC in assay [8] and in assay [9] was above 20 µM throughout.
Regarding `Cc1ncc([N+](=O)[O-])n1CC(O)CN1CCOCC1` (stereo unspecified) [MORINIDAZOLE], in assay [1], the CC50 was above 20 µM. Further, the MIC in assay [2], in assay [3], in assay [4], in [5], in [6] and in assay [7] was above 20 µM in each case. In addition, the MIC in assay [8] and in [9] was above 20 µM throughout.
As to `c1cnc(NCc2ccc(CNc3ncccn3)cc2)nc1` [MSX-122], the CC50 in assay [1] is above 20 µM. For the same compound, the MIC in assay [2], in assay [3], in [4], in [5], in assay [6] and in assay [7] was above 20 µM throughout. For the same compound, the MIC in assay [8] and in assay [9] was above 20 µM throughout.
As to `CC1CCc2c(N3CCC(O)CC3)c(F)cc3c(=O)c(C(=O)O)cn1c23` (stereo unspecified) [NADIFLOXACIN], the CC50 in [1] is above 20 µM. Moreover, the MIC is at most 0.156 µM in assay [2]; above 20 µM in [3]; at most 0.156 µM in [4]; 0.625 µM (≈ 0.225 µg/mL) in assay [5]; 20 µM (≈ 7.21 µg/mL) in assay [6]; 1.25 µM (≈ 0.45 µg/mL) in assay [7]. Also, the MIC in assay [8] was 20 µM (≈ 7.21 µg/mL); in assay [9], above 20 µM.
On to `[N-]=[N+]=N[C@H]1C[C@H](n2ccc(=O)[nH]c2=O)O[C@@H]1CO` [NAVURIDINE], for which, in assay [1], the CC50 is above 20 µM. Further, the MIC in [2], in assay [3], in [4], in [5], in assay [6] and in assay [7] was above 20 µM each time. Also, the MIC in assay [8] and in assay [9] was above 20 µM each time.
For `FC(F)(F)Oc1ccc(Nc2ccc3cccc(Cl)c3n2)cc1` [OBEFAZIMOD], the CC50 in [1] was above 20 µM. Further, the MIC in assay [2], in [3], in assay [4], in assay [5], in [6] and in assay [7] was above 20 µM each time. Moreover, the MIC in assay [8] and in assay [9] was above 20 µM in each case.
With `Cc1cc(-c2ccccc2)c(C(=O)C(=O)Nc2ccc(N3CCN(c4ncc(F)cn4)CC3)cc2)n1C` [OLOROFIM], the CC50 in assay [1] is above 20 µM. The MIC in [2], in assay [3], in assay [4], in [5], in assay [6] and in assay [7] was above 20 µM each time. Further, the MIC in [8] and in assay [9] was above 20 µM each time.
For the compound `O[C@@](Cn1cnnn1)(c1ccc(F)cc1F)C(F)(F)c1ccc(-c2ccc(OCC(F)(F)F)cc2)cn1` [OTESECONAZOLE], the CC50 in [1] was above 20 µM. Moreover, the MIC in [2] was above 20 µM; in assay [3], 0.625 µM (≈ 0.33 µg/mL); in assay [4], above 20 µM; in assay [5], above 20 µM; in [6], above 20 µM; in assay [7], above 20 µM. Also, the MIC was above 20 µM in assay [8] and at most 0.156 µM in assay [9].
With `COC(=O)Nc1nc2cc([S+]([O-])c3ccccc3)ccc2[nH]1` (stereo unspecified) [OXFENDAZOLE], the CC50 in [1] was above 20 µM. Also, the MIC in assay [2], in [3], in assay [4], in assay [5], in [6] and in [7] was above 20 µM in each case. Further, the MIC in [8] and in assay [9] was above 20 µM in each case.
`CC(C)Oc1ccc(-c2nc(-c3cccc4c3CC[C@@H]4NCCO)no2)cc1C#N` [OZANIMOD]: the CC50 in [1] is above 20 µM. Besides, the MIC in assay [2], in assay [3], in assay [4], in assay [5], in assay [6] and in [7] was above 20 µM throughout. Further, the MIC in assay [8] and in assay [9] was above 20 µM each time.
Take `CONC(=N)c1ccc(-c2ccc(-c3ccc(C(=N)NOC)cc3)o2)cc1` [PAFURAMIDINE]: the CC50 in assay [1] is above 20 µM. Besides, the MIC in assay [2], in assay [3], in assay [4], in assay [5], in assay [6] and in assay [7] was above 20 µM throughout. Besides, the MIC in assay [8] and in [9] was above 20 µM in each case.

The record behind these values is ChEMBL document CHEMBL4513161, “CO-ADD screening of MMV (CH) - Pandemic Response Box” (2021).
